These results are taken from US8088951B2, “Epigenetic mechanisms re-establish access to long-term memory after neuronal loss” (Massachusetts Institute of Technology, priority 2006, dated 2012).

What all share (type): in vivo
One assay deals with H3 and H4 acetylation. The experiment in a line: Histone acetylation in hippocampal lysates of wild type mice (immunoblot). The settings on record: daily ip for 4 weeks. As to the method: Immunoblotting and staining: Lysates for immunoblotting were prepared as described by Fischer et al. (3). To isolate histones, brain tissue was homogenized in TX-buffer (50 mM Tris HCL, 150 mM NACL, 2 mM EDTA, 1% Triton-100) and incubated at 4° C. for 15 min prior to centrifugation at 200 rpm for 10 min. After a wash-step in TX-buffer the pellet was dissolved in TX-buffer containing 0.2M HCl and incubated on ice for 30 min, before a second centrifugation at 10000 rpm for 10 min. The supernatant was either dialysed or directly used for immunoblotting. Antibodies were used in 1:1000 concentrations. All antibodies detecting histones and anti-PSD-95 were form Upstate (Lake Placid, N.Y.). Anti-synaptophysin (SVP38) was from Sigma. Anti-neuronal nuclei (neuN) and anti-growth associated protein (Gap43) were from Chemicon (Temecula, Calif.) and anti-N-cadherin, anti-β-catenin were from Santa Cruz (Santa Cruz, Calif.). Immunostaining was performed as described by Fischer et al. (3). Antibodies mentioned above were used in a 1:500 dilution. […]
Mechanism underlying EE. […] Since histone acetylation, an epigenetic mechanism regulating gene expression via chromatin remodeling, has recently been implicated in synaptic plasticity and learning behavior (15-18), the induction of a transcriptional program by EE that leads to activation of plasticity genes was evaluated. […]

Assay [1] concerns CK-p25 Tg mice. Nature of the assay: Water maze learning in CK-p25 Tg mice after neurodegeneration. The settings on record: 6 weeks p25 induction, then daily 1.2 g/kg for 4 weeks, vs vehicle, P<0.0001. The source says:
(§1) Learning tests: All behavioral testing is described in Fischer et al. (3).
Reinstatement of learning behavior through inhibition of HDAC. Whether sustained inhibition of HDACs would reinstate learning behavior and recover access to long-term memories in CK-p25 Tg mice that had developed synaptic and neuronal loss was investigated. P25 was induced in 11 month old CK-p25 Tg mice for 6 weeks. Afterwards p25 expression was repressed and one group of CK-p25 Tg mice was subjected to daily sodiumbutyrate (SB) injection (1.2 g/kg) for 4 weeks (n=9), whereas the other group received saline injection (n=9). […] To this end p25 expression was induced in 11-month old CK-p25 mice for 6 weeks, before one group was injected daily for 4 weeks with SB whereas the control group received saline injection (FIG. 4a).

Assay [2] has as its system CK-p25 Tg mice. The experiment in a line: Recovery of long-term spatial memories in CK-p25 Tg mice (water maze reminder-training). The settings on record: daily injection after 6 weeks p25 expression. The text has this:
Recovery of spatial memories upon environmental enrichment and sodiumbutyrate injection. CK-p25 Tg mice in which p25 expression was repressed and control mice were trained in the water maze paradigm until all mice reliably found the hidden platform. Afterwards all mice were returned to their home cages for 4 weeks to allow the consolidation of hippocampus independent long-term memories. Afterwards p25 expression was induced for 6 weeks, followed by p25 repression. […] To measure the retrieval of long-term memory mice were instead exposed to only 2 reminder-training sessions on a single day. […] The recovery of spatial memories upon environmental enrichment was evaluated by a similar experiment, except that after 6 weeks of p25 expression mice were either subjected to EE or returned to their home cages for 4 weeks. […] To evaluate the recovery of spatial memories upon SB injection, a similar experiment was performed as described above, but instead of EE, one group of CK-p25 Tg mice (n=10) received daily injection of SB, whereas the other group was injected with vehicle (n=10).

Another assay relates to C57BL/6J mice. Nature of the assay: Water maze paradigm (spatial learning) in wild type mice. The settings on record: daily ip for 4 weeks; vs vehicle group; P<0.0001.
From the text: as §1
Mechanism underlying EE. Other than a few genes involved in synaptic function, relatively little is known about the mechanism underlying EE (12-14). Since histone acetylation, an epigenetic mechanism regulating gene expression via chromatin remodeling, has recently been implicated in synaptic plasticity and learning behavior (15-18), the induction of a transcriptional program by EE that leads to activation of plasticity genes was evaluated. Wild type mice were subjected to EE and hippocampal and cortical brain lysates were obtained 3, 24 h or 2 weeks later (n=3/group) by acid extraction and probed with antibodies detecting histone-tail modification that indicate active chromatin. Increases in hippocampal H3 (K-9, K14) and H4 (K-5) and in cortical H3 (K-9) and H4 (K-5) acetylation were observed. […] No changes in H4 acetylation were observed when the Ac-H4 (K,8,12,16) antibody was used, which is likely due to the fact that H4-K16 is a marker of condensed chromatin. EE induced hippocampal and cortical histone 3 (H3) and histone 4 (H4) acetylation and methylation as soon as 3 hours after treatment (FIGS. 3a, b). […]
The over expression of HDAC2 impairs spatial learning. […] The swimming path of the mice was recorded by a video camera and analyzed by the Videomot 2 software (TSE). […]

Assay [3] deals with CK-p25 Tg mice. Nature of the assay: Recovery of long-term fear memories in CK-p25 Tg mice. The settings on record: CK-p25 Tg mice trained, 4 weeks rest, 6 weeks p25, then 1.2 g/kg daily for 4 weeks; P=0.0496. The procedure:
The effect of HDAC inhibition on the recovery of inaccessible long-term memories was evaluated. Eleven month old CK-p25 Tg mice were trained in the fear conditioning paradigm and returned to their home cages for 4 weeks. Subsequently p25 was induced for 6 weeks before the mice were injected with either saline (vehicle, n=12) or SB (1.2 g/kg, n=14) for 4 weeks (daily). […] (FIG. 4f). […] Thus chronic injection of SB led to the recovery of memories in CK-p25 Tg mice that had developed severe neuronal loss.

“Also recorded” adds a separate entry of the source.

For the compound `CCCC(=O)[O-].[Na+]` [SB, sodiumbutyrate], in the assay on H3 and H4 acetylation, the “H3- and H4 acetylation in the hippocampus” value is listed as “robust increase”. In addition, the “spatial learning (escape latency)” value in the assay with CK-p25 Tg mice [1] is “significantly shorter escape latency”. The “recovery of long-term spatial memories” value in the assay on CK-p25 Tg mice [2] was “leads to the recovery of long-term spatial memories; also recorded: spatial long-term memories recover after neuronal loss”. In addition, the “escape latency in water maze paradigm” value with C57BL/6J mice is recorded as “shorter escape latency”. For the same compound, the “freezing behavior in long-term memory test” value in the assay with CK-p25 Tg mice [3] was “performed significantly better than vehicle injected CK-p25 Tg mice”.
